Laboratory results as given in patent US20150110865A1, “CNS STIMULANT AND OPIOID RECEPTOR ANTAGONIST COMBINATION AS A NON-ADDICTIVE, NON-AVERSIVE AND SYNERGISTIC ANTI-OBESITY TREATMENT” (FLORIDA STATE UNIVERSITY RESEARCH FOUNDATION, priority 2013, published 2015).

Tests used:
μ opioid receptor (MOPR) [1] = target: T1, μ opioid receptor (MOPR) (Mus musculus, UniProt P42866); type: biochemical; parameters: dose or concentration left out as unconfirmed; details: caudate-putamen membranes; FIG. 3
T1 construct: Caudate-putamen and nucleus accumbens are identified in the frozen slices based on anatomical landmarks and samples from these two brain regions are collected; from tissue; host or cells: mouse brain: caudate-putamen and nucleus accumbens membrane preparations
T1 sequence (P42866 whole entry): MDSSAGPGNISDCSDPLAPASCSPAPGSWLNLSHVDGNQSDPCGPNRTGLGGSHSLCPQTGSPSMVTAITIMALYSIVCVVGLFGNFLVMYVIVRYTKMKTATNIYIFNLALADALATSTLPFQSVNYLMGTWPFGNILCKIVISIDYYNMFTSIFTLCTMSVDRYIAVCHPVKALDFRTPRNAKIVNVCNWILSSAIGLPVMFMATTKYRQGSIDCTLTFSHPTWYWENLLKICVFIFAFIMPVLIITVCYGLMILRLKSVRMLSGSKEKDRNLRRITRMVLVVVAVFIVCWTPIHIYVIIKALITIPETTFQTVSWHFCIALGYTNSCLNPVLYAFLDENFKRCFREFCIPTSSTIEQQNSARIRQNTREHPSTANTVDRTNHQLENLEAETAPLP
Procedure: Activity of the μ opioid receptor (MOPR) is assayed by using [35S]GTPγS binding on membrane preparations. The same mice that are used in the conditioned place preference assay are used for these assays Immediately upon completion of the behavioral assay, the mice are sacrificed by cervical dislocation and the brain is dissected rapidly. The brain is frozen in liquid nitrogen and 1.0 mm slices of the brain were prepared in the coronal plane using a tissue-slicing matrix (Model 15003; Ted Pella, Redding, Calif.). Caudate-putamen and nucleus accumbens are identified in the frozen slices based on anatomical landmarks and samples from these two brain regions are collected using a tissue punch. The samples are homogenized using teflon pestle in Eppendorf tubes (10 strokes) in 300 μl of homogenization buffer containing 25 mMTris/pH 7.4, 5 mMEDTA and 0.1 mMPMSF and kept on ice. Homogenate is diluted to 2.5 ml using the homogenization buffer and centrifuged at −350,000 g for 30 min. After washing 3 times with 50 mM Tris-HCl/pH 7.4, the pellets are re-suspended in 50 mM Tris-HCl/pH 7.4 containing 0.32 M sucrose, passed through a 26.5 G needle 3 times, frozen in dry ice/ethanol and stored in −80° C. until use.
(§1) Nonspecific binding is defined by incubation in the presence of 10 μM GTPγS. […] Radioactivity on filters is determined by liquid scintillation counting. […]

[2] = system: prenatal nicotine exposure mouse model of ADHD; details: cited from earlier work
[3] = 0.75 mg/kg MPH administered to adult mice; cited from earlier work
C57/B6 mice = assay: Conditioned place preference (CPP); type: in vivo, mouse; details: for time spent in drug-paired chamber, Test sessions compared to pre-conditioning sessions: FIG. 1; for CPP score compared to saline-treated group: FIG. 2; for time spent in drug-paired chamber, Test sessions compared to PC sessions: p>0.05, n=6; for CPP score compared to saline control group: p>0.05
From the text: C57/B6 mice are purchased from Charles River Laboratories. Only male mice are used.
A three-chamber place preference apparatus is used. The apparatus has two equally sized (16.8×12 cm) preference chambers connected by a central chamber (7.2×12 cm), and is outfitted with sliding guillotine-style doors between each chamber. Photobeams connected to a computer system can record animal location and time spent in that location. The central chamber has a gray colored smooth floor. The preference chamber is either white with a mesh floor or black with a bar floor. The CPP procedure included three phases: Pre-conditioning, conditioning and test phases.
The pre-conditioning phase is performed on day 1 (two sessions daily, AM and PM). In each pre-conditioning session, mice are initially placed in the central gray chamber for 2 min and then allowed free access to the white and black chambers for 20 min. The time spent in each chamber is recorded.
For the next phase in the assay, the conditioning phase, the non-preferred chamber (i.e. the chamber in which less time is spent) is designated as the drug-paired chamber and the preferred chamber (i.e. the chamber in which more time was spent) is designated as the vehicle-paired chamber.
The conditioning phase is carried out on each of days 2-6. There are two conditioning sessions daily, morning session between 8 and 10 AM and afternoon session between 2 and 4 PM. There is one session each for vehicle-paired (saline as vehicle) and drug-paired (MPH as drugs) conditions on each day of the conditioning phase. The mice are administered saline or drug (i.p.) in the saline- or drug-paired sessions, respectively and placed in the central gray chamber for 2 min (to isolate injection effect to the central chamber) and then confined to the vehicle-or-drug-paired chamber, respectively for 30 min. On the first day of the conditioning phase, the mouse receive saline during the morning session and the drug in the afternoon session. The next day, the order of treatments is reversed: drug in the morning session and saline in the afternoon session. These two paradigms are alternated for the remainder of the conditioning phase. This conditioning strategy is used for all the experiments except those using naltrexone.
Saline is administered on the first day and naltrexone (or naltrexone+MPH) is administered the following day. Administrations of saline and naltrexone are alternated for each of the next 9 days (total duration of conditioning is 10 days).
During the test phase, (one session on the day after the conditioning phase) the mice are placed in the central gray chamber for 2 min and then given free access to the drug- and saline-paired chambers for 20 min. The time spent in each chamber is recorded. The difference between time spent in the drug-paired chamber during the test phase and pre-conditioning phases was calculated as the CPP score. Saline and the drugs are administered intraperitoneally. All the behavioral analyses are performed during the light phase of the light-dark cycle.
Differences between two experimental groups are analyzed for statistical significance by using Student's t-test. Treatment effects on multiple groups are tested for significance by using one-way ANOVA and the differences among the groups are tested for significance by using Dunnett's multiple comparisons test.

μ opioid receptor (MOPR) [4] = assay: MOPR activity by DAMGO-stimulated [35S]GTPγS binding in brain membranes of drug-treated mice after the CPP assay; type: in vivo, mouse; details: low dose MPH 0.75 mg/kg; either brain region; FIG. 4
Procedure: Activity of the μ opioid receptor (MOPR) is assayed by using [35S]GTPγS binding on membrane preparations. The same mice that are used in the conditioned place preference assay are used for these assays Immediately upon completion of the behavioral assay, the mice are sacrificed by cervical dislocation and the brain is dissected rapidly. The brain is frozen in liquid nitrogen and 1.0 mm slices of the brain were prepared in the coronal plane using a tissue-slicing matrix (Model 15003; Ted Pella, Redding, Calif.). Caudate-putamen and nucleus accumbens are identified in the frozen slices based on anatomical landmarks and samples from these two brain regions are collected using a tissue punch. The samples are homogenized using teflon pestle in Eppendorf tubes (10 strokes) in 300 μl of homogenization buffer containing 25 mMTris/pH 7.4, 5 mMEDTA and 0.1 mMPMSF and kept on ice. Homogenate is diluted to 2.5 ml using the homogenization buffer and centrifuged at −350,000 g for 30 min. […]
as §1
Differences between two experimental groups are analyzed for statistical significance by using Student's t-test. […]

[5] = naltrexone 5 mg/kg prior to MPH 7.5 mg/kg, FIG. 6
[6] = naltrexone 10 mg/kg prior to MPH 7.5 mg/kg, FIG. 6

Compound: C[C@@H](NC(=O)[C@@H](N)Cc1ccc(O)cc1)C(=O)NCC(=O)N(C)[C@@H](Cc1ccccc1)C(=O)NCCO [DAMGO]
- maximal [35S]GTPγS binding (μ opioid receptor (MOPR) [1]): 1.75 fold of the basal level

Compound: COC(=O)C(c1ccccc1)C1CCCCN1 (centres unmarked) [MPH, methylphenidate]
- effect on hyperactivity ([2]; 0.75 mg/kg methylphenidate): reduce hyperactivity
- time after administration at which hyperactivity started to decline ([2]; ADHD mouse model): 2 h
- serum and brain concentrations of D-methylphenidate [3]: equivalent to the levels seen in human subjects given oral therapeutic doses of MPH
- time spent in drug-paired chamber, Test sessions compared to pre-conditioning sessions (C57/B6 mice; high-dose MPH 7.5 mg/kg i.p., t-test p=0.005, n=6/group): significantly longer period of time in the drug-paired chamber
- time spent in drug-paired chamber, Test sessions compared to pre-conditioning (PC) sessions (C57/B6 mice; high-dose MPH 7.5 mg/kg plus saline, naltrexone experiment, FIG. 5): significantly longer period of time in the drug-paired chamber
- CPP score compared to saline-treated group (C57/B6 mice; high-dose MPH 7.5 mg/kg, multiple comparisons test): significant (p<0.05) effects
- CPP score compared to saline control (C57/B6 mice; high-dose MPH 7.5 mg/kg, naltrexone experiment, p<0.01, FIG. 6): significantly greater than that produced by the saline control
- time spent in drug-paired chamber, Test sessions compared to pre-conditioning sessions (C57/B6 mice; low dose MPH 0.75 mg/kg i.p., t-test p>0.05): do not show significant differences
- CPP score compared to saline-treated group (C57/B6 mice; low dose MPH 0.75 mg/kg): no significant difference
- MOPR activity compared to the saline group (μ opioid receptor (MOPR) [4]): no significant difference

Compound: O=C1CC[C@@]2(O)[C@H]3Cc4ccc(O)c5c4[C@@]2(CCN3CC2CC2)[C@H]1O5 [naltrexone]
- time spent in drug-paired chamber, Test sessions compared to PC sessions (C57/B6 mice; naltrexone 1 mg/kg alone, FIG. 5): Neither saline alone nor naltrexone (1 or 10 mg/kg) alone produces significant changes
- CPP score compared to prior treatment with saline (C57/B6 mice; naltrexone 1 mg/kg prior to MPH 7.5 mg/kg, FIG. 6): significantly decrease the CPP score
- CPP score compared to prior treatment with saline (C57/B6 mice; [5]): significantly decrease the CPP score
- CPP score compared to saline control group (C57/B6 mice; [5]): not significantly different
- abuse potential of methylphenidate (C57/B6 mice; naltrexone 10 mg/kg administered with 7.5 mg/kg methylphenidate): completely abolishes the abuse potential of methylphenidate
- time spent in drug-paired chamber, Test sessions compared to PC sessions (C57/B6 mice; naltrexone 10 mg/kg alone, FIG. 5): Neither saline alone nor naltrexone (1 or 10 mg/kg) alone produces significant changes
- CPP score compared to prior treatment with saline (C57/B6 mice; [6]): significantly decrease the CPP score
- CPP score compared to saline control group (C57/B6 mice; [6]): not significantly different
- dose dependence of the decrease in the CPP score (C57/B6 mice; naltrexone 1, 5 or 10 mg/kg prior to MPH 7.5 mg/kg, FIG. 6): dose-dependent
